Laboratory results from patent US9415047B2, “Use of benzo five-membered nitrogen heterocyclic piperazine or piperidine derivatives” (Liaoning Emmy Biological Pharmaceutical Co., Ltd., priority 2012, dated 2016).

What was measured:
[1] = tested on: AD constricted rabbit aorta; assay: Relaxing effects on vascular smooth muscle constricted by adrenaline hydrochloride (AD) in vitro; conditions: Oryctolagus cuniculus; relaxation of rabbit aorta constricted by adrenaline (10^−5 mol/L); mean±SEM, n=5
Description: Adrenaline hydrochloride (AD) (10^−5 mol/L) was added into a bath tube to induce constriction, when maximal constriction was achieved, the sample was completely flushed, K-H solution was changed for every 20 min. Contents in the tube was balanced for 60 min, when baseline recovered to be stable, the […] was added at the same concentration to induce constriction. When the later maximal constriction response was basically consistent with the former one, the prepared compound solutions were subsequently added, including compound II-1 to II-60 solutions (1×10^−8-1×10^−3 mol/L), compound II-84 to II-123 solutions (1×10^−10-1×10^−2 mol/L) and compound II-124 to II-157 solutions (1×10^−10˜1×10^−3 mol/L), to record the waveforms. Relaxing percentage of the compound was used as Y axis, maximal relaxation response was 100%, negative logarithm of different concentration was used as X axis, to draw dose effect curve (expressed in mean±SEM ( ? ), n=5). Compounds II-2 and II-3 had the most obvious relaxing effects (FIG. 1 and FIG. 8).

[2] = tested on: high kalium concentration constricted rabbit aorta; assay: Relaxing effects on vascular smooth muscle constricted by high kalium concentration in vitro; conditions: Oryctolagus cuniculus, relaxation of rabbit aorta constricted by high kalium solution (K+ 60 mmol/L); mean±SEM, n=5
Description: Adrenaline hydrochloride (AD) (10^−5 mol/L) was added into a bath tube to induce constriction, when maximal constriction was achieved, the sample was completely flushed, K-H solution was changed for every 20 min. Contents in the tube was balanced for 60 min, when baseline recovered to be stable, K-H solution in the bath tube was replaced with high kalium concentration solution to induce constriction. When the later maximal constriction response was basically consistent with the former one, the prepared compound solutions were subsequently added, including compound II-1 to II-60 solutions (1×10^−8-1×10^−3 mol/L), compound II-84 to II-123 solutions (1×10^−10-1×10^−2 mol/L) and compound II-124 to II-157 solutions (1×10^−10-1×10^−3 mol/L), to record the waveforms. Relaxing percentage of the compound was used as Y axis, maximal relaxation response was 100%, negative logarithm of different concentration was used as X axis, to draw dose effect curve (expressed in mean±SEM ( ? ), n=5). Compounds II-2 and II-3 had the most obvious relaxing effects (FIG. 2 and FIG. 9).

| Compound | EC50 [1] [µM] | EC50 [2] [µM] |
| --- | --- | --- |
| c1coc(N2CCN(CCCCn3nnc4ccccc43)CC2)c1 [II-43, 1-(4-(4-(2-furyl)piperazine-1-yl)butyl)-1H-benzotriazole] | 35.5 | 141 |
| Cc1nc2ccccc2n1CCCCN1CCN(c2cccc(C(F)(F)F)c2)CC1 [II-5, 2-methyl-1-(4-(4-(3-trifluoromethylphenyl)piperazine-1-yl)butyl)-1H-benzimidazole] | 16.6 | 29.5 |
| c1coc(N2CCN(CCCCn3cnc4ccccc43)CC2)c1 [II-12, 1-(4-(4-(2-furyl)piperazine-1-yl)butyl)-1H-benzimidazole] | 44.7 | 70.8 |
| Fc1ccc2c(N3CCN(CCCn4nnc5ccccc54)CC3)noc2c1 [II-37, 6-fluoro-3-(4-(3-(1H-benzotriazole-1-yl)propyl)piperazine-1-yl)benzisoxazole] | 2.75 | 3.72 |
| Clc1cccc(N2CCN(CCCOn3cnc4ccccc43)CC2)c1 [II-24, 1-(4-(4-(3-chlorphenyl)piperazine-1-yl)propoxyl)-1H-benzimidazole] | 30.2 | 30.2 |
| c1ccc2c(N3CCN(CCCCn4cnc5ccccc54)CC3)cccc2c1 [II-16, 1-(4-(4-(1-naphthyl)piperazine-1-yl)butyl)-1H-benzimidazole] | 51.3 | 64.6 |
| Clc1cccc(N2CCN(CCCCn3cnc4ccccc43)CC2)c1Cl [II-3, 1-(4-(4-(2,3-dichlorophenyl)piperazine-1-yl)butyl)-1H-benzimidazole] | 0.977 | 3.24 |
| COC(=O)c1ccc2ncn(CCCCN3CCN(c4cccc(C(F)(F)F)c4)CC3)c2c1 [II-27, 6-methoxycarbonyl-1-(4-(4-(3-trifluoromethylphenyl)piperazine-1-yl)butyl)-1H-benzimidazole] | 49 | 87.1 |
| Fc1ccc2nnn(CCCCN3CCN(c4cccc(C(F)(F)F)c4)CC3)c2c1 [II-32, 6-fluoro-1-(4-(4-(3-trifluoromethylphenyl)piperazine-1-yl)butyl)-1H-benzotriazole] | 3.89 | 24.5 |
| c1ccc2c(c1)nnn2CCCCN1CCN(c2nsc3ccccc23)CC1 [II-34, 3-(4-(4-(1H-benzotriazole-1-yl)butyl)piperazine-1-yl)benzisothiazole] | 0.00851 | 17 |
| COc1ccc2nnn(CCCN3CCC(c4nsc5cc(F)ccc45)CC3)c2c1 [II-149, N-(3-(6-methoxylbenzotriazolyl)propyl)-4-(3-(6-fluorobenzisothiazolyl))piperidine] | 97.7 | 490 |
| Fc1cccc(N2CCN(CCCn3cnc4ccccc43)CC2)c1 [II-8, 1-(3-(4-(3-fluorophenyl)piperazine-1-yl)propyl)-1H-benzimidazole] | 19.5 | 38.9 |
| c1cnc(N2CCN(CCCCn3nnc4ccccc43)CC2)nc1 [II-45, 1-(4-(4-(2-pyrimidinyl)piperazine-1-yl)butyl)-1H-benzotriazole] | 46.8 | 81.3 |
| Fc1ccc2c(N3CCN(CCCCn4cnc5ccccc54)CC3)coc2c1 [II-21, 1-(4-(4-(3-(6-fluorobenzofuranyl))piperazine-1-yl)butyl)-1H-benzimidazole] | 89.1 | 178 |
| Cc1cc2nnn(CCCCN3CCN(c4cccc(C(F)(F)F)c4)CC3)c2cc1C [II-33, 5,6-dimethyl-1-(4-(4-(3-trifluoromethylphenyl)piperazine-1-yl)butyl)-1H-benzotriazole] | 40.7 | 115 |
| Fc1ccc2c(N3CCN(CCCCn4cnc5ccccc54)CC3)noc2c1 [II-18, 1-(4-(4-(3-(6-fluorobenzisoxazolyl))piperazine-1-yl)butyl)-1H-benzimidazole] | 13.8 | 18.2 |
| Fc1ccc2c(N3CCN(CCCOn4nnc5ccc(F)cc54)CC3)nsc2c1 [II-53, 6-fluoro-1-(4-(4-(3-(6-fluoro-benzisothiazolyl))piperazine-1-yl)propoxyl)-1H-benzotriazole] | 52.5 | 132 |
| FC(F)(F)c1cccc(N2CCN(CCCCn3cnc4ccc(Cl)cc43)CC2)c1 [II-25, 6-chloro-1-(4-(4-(3-trifluoromethylphenyl)piperazine-1-yl)butyl)-1H-benzimidazole] | 16.2 | 29.5 |
| N#Cc1ccc2ccn(CCCCN3CCN(c4cccc(Cl)c4)CC3)c2c1 [II-58, 6-cyano-1-(4-(4-(3-chlorophenyl)piperazine-1-yl)butyl)-1H-indole] | 67.6 | 178 |

| Compound | EC50 [1] [µM] | EC50 [2] [µM] |
| --- | --- | --- |
| N#Cc1ccc2nnn(CCCCN3CCN(c4cccc(C(F)(F)F)c4)CC3)c2c1 [II-55, 6-cyano-1-(4-(4-(3-trifluoromethylphenyl)piperazine-1-yl)butyl)-1H-benzotriazole] | 97.7 | 195 |
| COc1cccc(N2CCN(CCCCn3nnc4ccccc43)CC2)c1 [II-40, 1-(4-(4-(3-methoxyphenyl)piperazine-1-yl)butyl)-1H-benzotriazole] | 4.47 | 5.13 |
| N#Cc1cccc(N2CCN(CCCCn3nnc4ccccc43)CC2)c1 [II-41, 1-(4-(4-(3-cyanophenyl)piperazine-1-yl)butyl)-1H-benzotriazole] | 30.9 | 24.5 |
| c1ccc2c(c1)nnn2CCCCN1CCN(c2noc3ccccc23)CC1 [II-35, 3-(4-(4-(1H-benzotriazole-1-yl)butyl)piperazine-1-yl)benzisoxazole] | 12.9 | 32.4 |
| N#Cc1ccc2nnn(CCCCN3CCC(c4noc5cc(F)ccc45)CC3)c2c1 [II-145, N-(4-(6-cyanobenzotriazolyl)butyl)-4-(3-(6-fluorobenzisoxazolyl))piperidine] | 2.95 | 295 |
| c1ccc(N2CCN(CCCn3cnc4ccccc43)CC2)cc1 [II-7, 1-(3-(4-phenylpiperazine-1-yl)propyl)-1H-benzimidazole] | 51.3 | 162 |
| FC(F)(F)c1cccc(N2CCN(CCCCn3nnc4ccc(Cl)cc43)CC2)c1 [II-54, 6-chloro-1-(4-(4-(3-trifluoromethylphenyl)piperazine-1-yl)butyl)-1H-benzotriazole] | 6.17 | 12.3 |
| c1ccc2c(c1)ncn2CCCCN1CCN(c2ccncc2)CC1 [II-13, 1-(4-(4-(4-pyridyl)piperazine-1-yl)butyl)-1H-benzimidazole] | 38.9 | 30.2 |
| c1ccc2nc(N3CCN(CCCCn4cnc5ccccc54)CC3)cnc2c1 [II-17, 1-(4-(4-(2-quinoxalinyl)piperazine-1-yl)butyl)-1H-benzimidazole] | 29.5 | 49 |
| Cc1nc2ccccc2n1CCCN1CCN(c2cccc(F)c2)CC1 [II-9, 2-methyl-1-(3-(4-(3-fluorophenyl)piperazine-1-yl)propyl)-1H-benzimidazole] | 42.7 | 52.5 |
| COC(=O)c1ccc2nnn(CCCCN3CCN(c4cccc(C(F)(F)F)c4)CC3)c2c1 [II-56, 6-methoxycarbonyl-1-(4-(4-(3-trifluoromethylphenyl)piperazine-1-yl)butyl)-1H-benzotriazole] | 55 | 309 |
| Fc1cccc(N2CCN(CCCCn3nnc4ccccc43)CC2)c1 [II-30, 1-(4-(4-(3-fluorophenyl)piperazine-1-yl)butyl)-1H-benzotriazole] | 3.02 | 7.41 |
| COc1ccccc1N1CCN(CCCCn2cnc3ccccc32)CC1 [II-4, 1-(4-(4-(2-methoxyphenyl)piperazine-1-yl)butyl)-1H-benzimidazole] | 11 | 16.2 |
| N#Cc1ccc2ncn(CCCCN3CCN(c4cccc(C(F)(F)F)c4)CC3)c2c1 [II-26, 6-cyano-1-(4-(4-(3-trifluoromethylphenyl)piperazine-1-yl)butyl)-1H-benzimidazole] | 64.6 | 102 |
| COc1ccc2nnn(CCCN3CCC(c4n[nH]c5cc(F)ccc45)CC3)c2c1 [II-150, N-(3-(6-methoxylbenzotriazolyl)propyl)-4-(3-(6-fluorobenzopyrazol))piperidine] | 74.1 | 234 |
| Fc1ccc2c(N3CCN(CCCCn4nnc5ccccc54)CC3)nsc2c1 [II-49, 1-(4-(4-(3-(6-fluorobenzisothiazolyl))piperazine-1-yl)butyl)-1H-benzotriazole] | 89.1 | 141 |
| c1ccc2c(c1)nnn2CCCCN1CCN(c2ccncc2)CC1 [II-44, 1-(4-(4-(4-pyridyl)piperazine-1-yl)butyl)-1H-benzotriazole] | 70.8 | 186 |
| c1ccc2c(c1)nnn2CCCCN1CCN(C2CCCCC2)CC1 [II-46, 1-(4-(4-cyclohexylpiperazine-1-yl)butyl)-1H-benzotriazole] | 55 | 120 |
